Our source for the TGI and GI50 values is PubChem BioAssay (NCI).

Several values for one entry are separate records, joined by “and”; a condition that tells them apart may be missing. Identical values can stand only once.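 1) Cells in 96-well plates. 2) Compound, 48 h, 5 concentrations. 3) Linear interpolation between surrounding doses. 4) Unreached endpoint = highest concentration. Abbreviation: GI50, concentration required for 50% inhibition of growth. Definition used: TGI = concentration required for complete inhibition of growth.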

The first assay deals with T-47D breast. Briefly: DTP human tumour cell line panel, 48 h.
As usually defined, the TGI is the concentration giving total growth inhibition. Regarding `Cc1nc(SCC(N)=O)c2sc(=S)n(-c3ccccc3)c2n1`, the concentration for total growth inhibition (TGI) is above 10 µM.
The same measure, in the same setting: the result for `O=C(CC(C(=O)c1cccs1)c1ccc2c(c1)OCO2)c1ccc(Br)cc1` (stereo unspecified) reads above 100 µM; that for `COc1cc(-c2oc3ccccc3c(=O)c2O)cc(OC)c1OC`, above 100 µM.
Turning to `CSc1ccc(/C=C2\CNC/C(=C\c3ccc(SC)cc3)C2=O)cc1`, the total growth inhibition concentration (TGI) was above 371 µM.
A word on the GI50: it is the concentration giving 50% growth inhibition. `Clc1ccc(COC(Cn2ccnc2)c2ccc(Cl)cc2Cl)cc1` (stereo unspecified): the GI50 was 2.26 µM; the TGI is 8.76 µM and 23.4 µM and 19.9 µM.
With `CC[C@H](C)[C@H](NC(=O)c1cnccn1)C(=O)N(C)[C@H](C[C@@H](OC(C)=O)c1nc(C(=O)N[C@@H](Cc2ccccc2)C[C@H](C)C(=O)OC)cs1)C(C)C`, the GI50 is 2.48 µM and the concentration for total growth inhibition (TGI) was above 33.3 µM.
As for `Nc1c(C(=O)Nc2ccc([As](=O)(O)O)cc2)cnc2nnnn12`, the concentration for total growth inhibition (TGI) is above 100 µM.
On to `CC(C)n1c(/C=C/[C@@H](O)C[C@@H](O)CC(=O)O)c(-c2ccc(F)cc2)c2ccccc21`, for which the GI50 was 14.2 µM and 13.8 µM; the TGI was above 100 µM.
As to `N#CC(C#N)SCc1ccccc1`, the TGI is above 100 µM.
With `CCOc1ccc(NCC2CC/C(=C\C=C\c3ccccc3)C2=O)cc1` (stereo unspecified), the TGI is 45.3 µM.

A further assay concerns HL-60(TB) leukemia. Briefly: DTP human tumour cell line panel, 48 h.
As to `Cc1ccc(C(=O)Nc2ccc(CN3CCN(C)CC3)c(C(F)(F)F)c2)cc1C#Cc1cnc(N)c2ccc(F)cc12`, the 50% growth inhibitory concentration (GI50) is 0.198 µM and the TGI worked out at 1.35 µM.
Take `CC1(C)CCC(C)(C)c2cc(C(=O)Nc3ccc(C(=O)O)cc3)ccc21`: the concentration for total growth inhibition (TGI) was above 53.1 µM.
Turning to `CC1=C(C(=O)NC2CCCCC2)CC(C(=O)NC2CCCCC2)=C(C)N1`, the TGI is above 100 µM.
In the case of `Cn1cc(C2=C(c3cn(C)c4ccc(N)cc34)C(=O)NC2=O)c2ccccc21`, the GI50 is 7.41 µM and the TGI was above 25 µM.
`S=C(N/N=C/c1cc(Cl)cc(Cl)c1)NC12CC3CC(CC(C3)C1)C2`: the GI50 is above 100 µM and the TGI is above 100 µM.
As to `CCCCN1C(=O)CC2[C@@H]3CCc4cc(OC)ccc4C3CC[C@]2(C)C1=O` (stereo partly specified), the concentration for total growth inhibition (TGI) is above 10 µM.
As for `COc1cc2cc(Oc3ccc(NC(=O)c4cccc(C(F)(F)F)c4)cc3)c(C)nc2cc1OC`, the GI50 is 3.84 µM and the TGI is above 100 µM.
As to `COc1cc(/C=C2\CN(C)CC3=C2Nc2nc(SC)[nH]c(=O)c2C3c2cc(OC)c(OC)c(OC)c2)cc(OC)c1OC` (stereo unspecified), the GI50 is 2.26 µM and the TGI turned out to be 9.66 µM.
Take `Cc1nc(SCC(N)=O)c2sc(=S)n(-c3ccccc3)c2n1`: the TGI is above 10 µM.
The compound `O=C(CC(C(=O)c1cccs1)c1ccc2c(c1)OCO2)c1ccc(Br)cc1` (stereo unspecified) had a TGI above 100 µM.
In the case of `COc1cc(-c2oc3ccccc3c(=O)c2O)cc(OC)c1OC`, the total growth inhibition concentration (TGI) was above 28.1 µM.
As to `CSc1ccc(/C=C2\CNC/C(=C\c3ccc(SC)cc3)C2=O)cc1`, the GI50 was 15.2 µg/mL; the total growth inhibition concentration (TGI) is 362 µM and 99.8 µg/mL.
For `Clc1ccc(COC(Cn2ccnc2)c2ccc(Cl)cc2Cl)cc1` (stereo unspecified), the GI50 is 2.42 µM; the TGI was 5.2 µM and 22.7 µM and 16.6 µM.
Regarding `CC[C@H](C)[C@H](NC(=O)c1cnccn1)C(=O)N(C)[C@H](C[C@@H](OC(C)=O)c1nc(C(=O)N[C@@H](Cc2ccccc2)C[C@H](C)C(=O)OC)cs1)C(C)C`, the GI50 was 0.9 µM and the TGI is 2.24 µM.
`Nc1c(C(=O)Nc2ccc([As](=O)(O)O)cc2)cnc2nnnn12` returned a TGI above 100 µM.
Regarding `CC(C)n1c(/C=C/[C@@H](O)C[C@@H](O)CC(=O)O)c(-c2ccc(F)cc2)c2ccccc21`, the GI50 is 14.5 µM and 10.9 µM; the TGI is 55.2 µM and > 100 µM.
In turn, `N#CC(C#N)SCc1ccccc1` yielded a concentration for total growth inhibition (TGI) of 14.7 µM.
With `CCOc1ccc(NCC2CC/C(=C\C=C\c3ccccc3)C2=O)cc1` (stereo unspecified), the concentration for total growth inhibition (TGI) was determined as 47.8 µM.

Another assay has as its system ACHN renal. Briefly: DTP human tumour cell line panel, 48 h.
Take `Cc1ccc(C(=O)Nc2ccc(CN3CCN(C)CC3)c(C(F)(F)F)c2)cc1C#Cc1cnc(N)c2ccc(F)cc12`: the concentration for 50% growth inhibition (GI50) was 0.0791 µM and the total growth inhibition concentration (TGI) amounted to 0.401 µM.
In turn, `CC1(C)CCC(C)(C)c2cc(C(=O)Nc3ccc(C(=O)O)cc3)ccc21` returned a TGI above 61.2 µM.
`CC1=C(C(=O)NC2CCCCC2)CC(C(=O)NC2CCCCC2)=C(C)N1`: the TGI is above 100 µM.
On to `Cn1cc(C2=C(c3cn(C)c4ccc(N)cc34)C(=O)NC2=O)c2ccccc21`, for which the GI50 is 13.9 µM and the TGI is above 25 µM.
On to `S=C(N/N=C/c1cc(Cl)cc(Cl)c1)NC12CC3CC(CC(C3)C1)C2`, for which the GI50 was 2.29 µM and the TGI was determined as 8.05 µM.
Consider `CCCCN1C(=O)CC2[C@@H]3CCc4cc(OC)ccc4C3CC[C@]2(C)C1=O` (stereo partly specified), for which the TGI is above 10 µM.
As to `COc1cc2cc(Oc3ccc(NC(=O)c4cccc(C(F)(F)F)c4)cc3)c(C)nc2cc1OC`, the GI50 is 3.6 µM and the TGI is above 100 µM.
Regarding `COc1cc(/C=C2\CN(C)CC3=C2Nc2nc(SC)[nH]c(=O)c2C3c2cc(OC)c(OC)c(OC)c2)cc(OC)c1OC` (stereo unspecified), the GI50 is 1.93 µM and the TGI is 3.55 µM.
`Cc1nc(SCC(N)=O)c2sc(=S)n(-c3ccccc3)c2n1` gave a TGI above 10 µM.
Still for that read-out and setting: the result for `O=C(CC(C(=O)c1cccs1)c1ccc2c(c1)OCO2)c1ccc(Br)cc1` (stereo unspecified) reads above 100 µM; that for `COc1cc(-c2oc3ccccc3c(=O)c2O)cc(OC)c1OC`, 75.4 µM; that for `CSc1ccc(/C=C2\CNC/C(=C\c3ccc(SC)cc3)C2=O)cc1`, above 371 µM.
As for `Clc1ccc(COC(Cn2ccnc2)c2ccc(Cl)cc2Cl)cc1` (stereo unspecified), the GI50 was 3.59 µM; the concentration for total growth inhibition (TGI) was 12.6 µM and 29.8 µM and 25.9 µM.
With `CC[C@H](C)[C@H](NC(=O)c1cnccn1)C(=O)N(C)[C@H](C[C@@H](OC(C)=O)c1nc(C(=O)N[C@@H](Cc2ccccc2)C[C@H](C)C(=O)OC)cs1)C(C)C`, the GI50 is 2.69 µM and the TGI was above 33.3 µM.
Consider `Nc1c(C(=O)Nc2ccc([As](=O)(O)O)cc2)cnc2nnnn12`, for which the concentration for total growth inhibition (TGI) was above 100 µM.
On to `CC(C)n1c(/C=C/[C@@H](O)C[C@@H](O)CC(=O)O)c(-c2ccc(F)cc2)c2ccccc21`, for which the GI50 is 0.725 µM and 0.558 µM; the concentration for total growth inhibition (TGI) is above 100 µM.
The compound `N#CC(C#N)SCc1ccccc1` had a TGI above 100 µM.
On the same count and under the same terms, the result for `CCOc1ccc(NCC2CC/C(=C\C=C\c3ccccc3)C2=O)cc1` (stereo unspecified) reads above 92.2 µM.
